The record followed here is patent US4983608A, “N-substituted-4-pyrimidinamines and pyrimidinediamines” (Hoechst-Roussell Pharmaceuticals, Inc., priority 1989, dated 1991).

Holding throughout (format): in vivo
Experiment [1] deals with phenyl-para-quinone writhing. Kind of experiment: phenyl-para-quinone writhing assay in mice (analgesia). The note with it: Mus musculus, sc, 20 mg/kg s.c., read-out: Analgesic Activity % Inhibition of Writhing at a Screening Dose of 20 mg/kg s.c. The method, then:
Exptl. Biol. Med., 95, 729 (1957)]. Presented in Table I is the analgesic effect of some of the compounds of the invention, expressed as the percent decrease in writhing at a given dose (20 mg/kg s.c.).
A general note: In writhing tests, fewer writhes than in controls are read as antinociception.

Experiment [2] deals with Scopolamine Induced Memory Deficit. Kind of experiment: Dark Avoidance Assay (reversal of scopolamine induced memory deficit). The following applies: mice, retest after 24 hours. The method, then: The N-substituted-4-pyrimidinamines and pyrimidinediamines of the present invention are also useful in the treatment of various memory dysfunctions such as Alzheimer's disease.
In this assay, mice are tested for their ability to remember an unpleasant stimulus for a period of 24 hours. A mouse is placed in a chamber that contains a dark compartment; a strong incandescent light drives it to the dark compartment, where an electric shock is administered through metal plates on the floor. The animal is removed from the testing apparatus and tested again, 24 hours later, for the ability to remember the electric shock.
If scopolamine, an anticholinergic that is known to cause memory impairment is administered before an animal's initial exposure to the test chamber, the animal re-enters the dark compartment shortly after being placed in the test chamber 24 hours later. This effect of scopolamine is blocked by an active test compound, resulting in a greater interval before re-entry into the dark compartment.
The results for an active compound are expressed as the percent of a group of animals in which the effect of scopolamine is blocked, as manifested by an increased interval between being placed in the test chamber and re-entering the dark compartment.

The test system of experiment [3] is phenyl-para-quinone writhing. Kind of experiment: phenyl-para-quinone writhing assay in mice (analgesia). The note with it: 3.9 mg/kg s.c. (standard).

With `CCCN(c1ccncn1)n1cc(C)c2ccccc21` [N-(3-methyl-1H-indol-1-yl)-N-propyl-4-pyrimidinamine], in experiment [1], the inhibition in vivo at 20 mg/kg came to 60%.

On to `CCCN(c1cc(Cl)ncn1)n1cc(C)c2ccccc21` [6-Chloro-N-(3-methyl-1H-indol-1-yl)-N-propyl-4-pyrimidinamine], for which the inhibition in vivo at 20 mg/kg in experiment [1] amounted to 36%. On the same count and under the same terms, the same measure for `Cc1cn(Nc2cc(Nn3cc(C)c4ccccc43)ncn2)c2ccccc12` [N,N'-bis(3-methyl-1H-indol-1-yl)-4,6-pyrimidinediamine]: 33%; for `CCCN(c1ncncc1C#N)n1ccc2ccccc21` [5-Cyano-N-(1H-indol-1-yl)-N-propyl-4-pyrimidinamine]: 75%.

For `c1ccc2c(c1)c1ccccc1n2Nc1ccncn1` [N-(pyrimidin-4-yl)-9H-carbazol-9-amine, N-(Pyrimidin-4-yl)-9H-carbazol-9-amine], in experiment [1], the inhibition in vivo at 20 mg/kg stood at 65%. `Clc1cc(Nn2cccc2)ncn1` [6-Chloro-N-(1H-pyrrol-1-yl)-4-pyrimidinamine]: the inhibition in vivo at 20 mg/kg in experiment [1] was found to be 39%. Consider `Cc1cn(Nc2cc(Cl)ncn2)c2ccccc12` [6-Chloro-N-(3-methyl-1H-indol-1-yl)-4-pyrimidinamine], for which the inhibition in vivo at 20 mg/kg in experiment [1] amounted to 45%. For the same compound, in experiment [2] (1.25 mg/kg s.c. by body weight), the “% of Animals with Scopolamine Induced Memory Deficit Reversed” value (from here on “% of Animals”) turned out to be 33%. As for `CCCN(c1cc(Cl)ncn1)n1ccc2ccccc21` [6-Chloro-N-(1H-indol-1-yl)-N-propyl-4-pyrimidinamine], the inhibition in vivo at 20 mg/kg in experiment [1] turned out to be 40%. For the same compound, the “% of Animals” value in experiment [2] (1.25 mg/kg s.c. by body weight) amounted to 47%. Turning to `CN(c1ccnc(Cl)n1)n1cccc1` [2-Chloro-N-methyl-N-(1H-pyrrol-1-yl)-4-pyrimidinamine], the inhibition in vivo at 20 mg/kg in experiment [1] turned out to be 38%. Consider `CN(c1cc(Cl)ncn1)n1cccc1` [6-Chloro-N-methyl-N-(1H-pyrrol-1-yl)-4-pyrimidinamine], for which the inhibition in vivo at 20 mg/kg in experiment [1] worked out at 42%. For the compound `N#Cc1cncnc1Nn1ccc2ccccc21` [5-Cyano-N-(1H-indol-1-yl)-4-pyrimidinamine], the inhibition in vivo at 20 mg/kg in experiment [1] turned out to be 44%. For the same compound, the “% of Animals” value in experiment [2] (1.25 mg/kg s.c. by body weight) is 27%.

With `CC[C@@H]1C(=O)OC[C@@H]1Cc1cncn1C` [Pilocarpine, reference compound], in experiment [2] (5.00 mg/kg s.c. by body weight (standard)), the “% of Animals” value is 23%. As for `c1ccn(Nc2ccncn2)c1` [N-(1H-pyrrol-1-yl)-4-pyrimidinamine, N-(1H-Pyrrol-1-yl)-4-pyrimidinamine], the inhibition in vivo at 20 mg/kg in experiment [1] came to 30%. In the case of `CCCN(c1cc(Cl)ncn1)n1cccc1` [6-Chloro-N-propyl-N-(1H-pyrrol-1-yl)-4-pyrimidinamine], the inhibition in vivo at 20 mg/kg in experiment [1] was 46%. On to `CCC(=O)O[C@](Cc1ccccc1)(c1ccccc1)[C@H](C)CN(C)C` [Propoxyphene], for which the “Analgesic Activity % Inhibition of Writhing” value in experiment [3] stood at 50%. `Cc1cn(Nc2ccncn2)c2ccccc12` [N-(3-methyl-1H-indol-1-yl)-4-pyrimidinamine]: in experiment [2] (1.25 mg/kg s.c. by body weight), the “% of Animals” value was 20%. Consider `CCCN(c1ccncn1)n1ccc2ccccc21` [N-(1H-Indol-1-yl)-N-propyl-4-pyrimidinamine], for which, in experiment [1], the inhibition in vivo at 20 mg/kg came to 58%. Also, the “% of Animals” value in experiment [2] (1.25 mg/kg s.c. by body weight) is given as 27%.
